Values joined by “and” are separate entries in the source; they are usually repeats but may differ in a detail not shown here. Equal values may be shown once.
Test system: OVCAR-8 complex spheroid, growth inhibition
Assay: Anticancer human tumor OVCAR-8 cell line growth inhibition [Asc];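 also: spheroids exposed to agents for 7 days before readout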;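 as to viability, T/C: percent viability relative to DMSO vehicle wells taken as 100%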
Details: for viability, T/C: stronger effect = lower value
Procedure, shortened: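 Tumor cells were grown as multicellular spheroids with stromal HUVEC and mesenchymal stem cells and treated singly or in combination. Concentrations fell in half-log steps from the clinical Cmax, or from 10 microM where none was known.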

O=C(c1cc(Cc2n[nH]c(=O)c3ccccc23)ccc1F)N1CCN(C(=O)C2CC2)CC1 + CCN1C(C(=O)NC23CCC(C(=O)O)(CC2)CC3)C(c2cccc(Cl)c2F)C2(C(=O)Nc3cc(Cl)ccc32)C12CCCCC2
IC50 (curve of first compound, second compound 0.00949 µM): > 10 µM | IC50 (curve of first compound, second compound 0.03 µM): > 10 µM | IC50 (curve of first compound, second compound 0.0949 µM): > 10 µM | IC50 (curve of first compound, second compound 0.3 µM): > 10 µM | IC50 (curve of first compound, second compound 0.949 µM): > 10 µM | IC50 (curve of first compound, second compound 3 µM): > 10 µM | viability, T/C (second compound 0.00949 µM, first compound 0.0316 µM): 99.8% | viability, T/C (second compound 0.00949 µM, first compound 0.1 µM): 86% | viability, T/C (second compound 0.00949 µM, first compound 0.316 µM): 85.7% | viability, T/C (second compound 0.00949 µM, first compound 1 µM): 98.2% | viability, T/C (second compound 0.00949 µM, first compound 3.16 µM): 97.8% | viability, T/C (second compound 0.00949 µM, first compound 10 µM): 102% | viability, T/C (second compound 0.03 µM, first compound 0.0316 µM): 93.2% | viability, T/C (second compound 0.03 µM, first compound 0.1 µM): 94% | viability, T/C (second compound 0.03 µM, first compound 0.316 µM): 87.5% | viability, T/C (second compound 0.03 µM, first compound 1 µM): 100% | viability, T/C (second compound 0.03 µM, first compound 3.16 µM): 119% | viability, T/C (second compound 0.03 µM, first compound 10 µM): 102% | viability, T/C (second compound 0.0949 µM, first compound 0.0316 µM): 101% | viability, T/C (second compound 0.0949 µM, first compound 0.1 µM): 91.7% | viability, T/C (second compound 0.0949 µM, first compound 0.316 µM): 94.2% | viability, T/C (second compound 0.0949 µM, first compound 1 µM): 87.6% | viability, T/C (second compound 0.0949 µM, first compound 3.16 µM): 120% | viability, T/C (second compound 0.0949 µM, first compound 10 µM): 115% | viability, T/C (second compound 0.3 µM, first compound 0.0316 µM): 85.2% | viability, T/C (second compound 0.3 µM, first compound 0.1 µM): 85.9% | viability, T/C (second compound 0.3 µM, first compound 0.316 µM): 93.3% | viability, T/C (second compound 0.3 µM, first compound 1 µM): 91.4% | viability, T/C (second compound 0.3 µM, first compound 3.16 µM): 103% | viability, T/C (second compound 0.3 µM, first compound 10 µM): 120% | viability, T/C (second compound 0.949 µM, first compound 0.0316 µM): 99.6% | viability, T/C (second compound 0.949 µM, first compound 0.1 µM): 108% | viability, T/C (second compound 0.949 µM, first compound 0.316 µM): 105% | viability, T/C (second compound 0.949 µM, first compound 1 µM): 95.5% | viability, T/C (second compound 0.949 µM, first compound 3.16 µM): 96.3% | viability, T/C (second compound 0.949 µM, first compound 10 µM): 114% | viability, T/C (second compound 3 µM, first compound 0.0316 µM): 115% | viability, T/C (second compound 3 µM, first compound 0.1 µM): 104% | viability, T/C (second compound 3 µM, first compound 0.316 µM): 114% | viability, T/C (second compound 3 µM, first compound 1 µM): 103% | viability, T/C (second compound 3 µM, first compound 3.16 µM): 125% | viability, T/C (second compound 3 µM, first compound 10 µM): 107%

C#Cc1c(F)ccc2cc(O)cc(-c3ncc4c(N5CC6CCC(C5)N6)nc(OCC56CCCN5CC(F)C6)nc4c3F)c12 (stereo unspecified)
viability, T/C (compound 0.0316 µM): 110% and 90.4% and 96.5% | viability, T/C (compound 0.1 µM): 95.6% and 80.1% and 97.5% | viability, T/C (compound 0.316 µM): 101% and 110% and 87% | viability, T/C (compound 1 µM): 110% and 94.2% and 95% | viability, T/C (compound 3.16 µM): 93.7% and 83.9% and 94.7% | viability, T/C (compound 10 µM): 116% and 98.9% and 85.9% | IC50 (curve of compound): > 10 µM

Cc1nc(N2CCC3(CC2)COC(C)C3N)c(CO)nc1Sc1ccnc(N)c1Cl (stereo unspecified) + CNC(C)C(=O)NC1CN(S(=O)(=O)c2cccc(S(=O)(=O)N3CCC4CCC(C(=O)NC(c5ccccc5)c5ccccc5)N4C(=O)C(NC(=O)C(C)NC)C3)c2)CCC2CCC(C(=O)NC(c3ccccc3)c3ccccc3)N2C1=O
IC50 (curve of first compound, second compound 0.00316 µM): > 3 µM | IC50 (curve of first compound, second compound 0.01 µM): > 3 µM | IC50 (curve of first compound, second compound 0.0316 µM): > 3 µM | IC50 (curve of first compound, second compound 0.1 µM): > 3 µM | IC50 (curve of first compound, second compound 0.316 µM): > 3 µM | IC50 (curve of first compound, second compound 1 µM): > 3 µM | viability, T/C (second compound 0.00316 µM, first compound 0.00949 µM): 130% | viability, T/C (second compound 0.00316 µM, first compound 0.03 µM): 136% | viability, T/C (second compound 0.00316 µM, first compound 0.0949 µM): 208% | viability, T/C (second compound 0.00316 µM, first compound 0.3 µM): 235% | viability, T/C (second compound 0.00316 µM, first compound 0.949 µM): 260% | viability, T/C (second compound 0.00316 µM, first compound 3 µM): 245% | viability, T/C (second compound 0.01 µM, first compound 0.00949 µM): 111% | viability, T/C (second compound 0.01 µM, first compound 0.03 µM): 130% | viability, T/C (second compound 0.01 µM, first compound 0.0949 µM): 163% | viability, T/C (second compound 0.01 µM, first compound 0.3 µM): 251% | viability, T/C (second compound 0.01 µM, first compound 0.949 µM): 263% | viability, T/C (second compound 0.01 µM, first compound 3 µM): 237% | viability, T/C (second compound 0.0316 µM, first compound 0.00949 µM): 93% | viability, T/C (second compound 0.0316 µM, first compound 0.03 µM): 130% | viability, T/C (second compound 0.0316 µM, first compound 0.0949 µM): 166% | viability, T/C (second compound 0.0316 µM, first compound 0.3 µM): 205% | viability, T/C (second compound 0.0316 µM, first compound 0.949 µM): 248% | viability, T/C (second compound 0.0316 µM, first compound 3 µM): 224% | viability, T/C (second compound 0.1 µM, first compound 0.00949 µM): 86.7% | viability, T/C (second compound 0.1 µM, first compound 0.03 µM): 111% | viability, T/C (second compound 0.1 µM, first compound 0.0949 µM): 155% | viability, T/C (second compound 0.1 µM, first compound 0.3 µM): 166% | viability, T/C (second compound 0.1 µM, first compound 0.949 µM): 208% | viability, T/C (second compound 0.1 µM, first compound 3 µM): 171% | viability, T/C (second compound 0.316 µM, first compound 0.00949 µM): 70.7% | viability, T/C (second compound 0.316 µM, first compound 0.03 µM): 82.6% | viability, T/C (second compound 0.316 µM, first compound 0.0949 µM): 109% | viability, T/C (second compound 0.316 µM, first compound 0.3 µM): 169% | viability, T/C (second compound 0.316 µM, first compound 0.949 µM): 140% | viability, T/C (second compound 0.316 µM, first compound 3 µM): 110% | viability, T/C (second compound 1 µM, first compound 0.00949 µM): 81.5% | viability, T/C (second compound 1 µM, first compound 0.03 µM): 95.1% | viability, T/C (second compound 1 µM, first compound 0.0949 µM): 119% | viability, T/C (second compound 1 µM, first compound 0.3 µM): 123% | viability, T/C (second compound 1 µM, first compound 0.949 µM): 116% | viability, T/C (second compound 1 µM, first compound 3 µM): 75.1%
